Test results: patent US20160287617A1 (priority 2013, published 2016)
Marks after values point to notes of the source that are not given here.

How the values were obtained:
Set-up in all cases: species or system broiler chickens
Conditions in all cases: in vivo
[1] = system: T-2 toxin in chickens
[2] = system: T-2 toxin in chickens; remark: listed apart in the source
[3] = system: T-2 toxin in chickens; remark: listed apart in the source
[4] = system: Newcastle
[5] = system: T-2 toxin in chickens; remark: listed apart in the source
[6] = system: T-2 toxin in chickens; remark: listed apart in the source

T-2 toxin
Granulocytes (segmented neutrophils and band neutrophils), medians ± standard error [1]: 0.9 ± 0.17 ^a 10^3/μL
Hematocrit, medians ± standard error [1]: 31.8 ± 1.56 ^a %
Hemoglobin, medians ± standard error [1]: 12.1 ± 0.46 ^a g/dL
Lymphocytes, medians ± standard error [1]: 58.4 ± 3.32 ^b 10^3/μL
Median cell count (monocytes, basophils and eosinophils), medians ± standard error [1]: 5.8 ± 0.76 ^a 10^3/μL
Platelets, medians ± standard error [1]: 31 ± 4.95 ^a 10^3/μL
Red blood cells (erythrocytes), medians ± standard error [1]: 2.46 ± 0.12 ^a 10^6/μL
White blood cells (Leukocytes), medians ± standard error [1]: 65.10 ± 4.07 ^b 10^3/μL
Ash, medians ± standard error [2]: 56.37 ± 0.32 ^a %
Calcium, medians ± standard error [2]: 20.43 ± 0.19 ^a %
Manganesium, medians ± standard error [2]: 6.7 ± 0.21 ^a mg/kg
Phosphorous, medians ± standard error [2]: 9.72 ± 0.07 ^a %
Zinc, medians ± standard error [2]: 247 ± 4.37 ^a mg/kg
Feed consumption, medians ± standard error [3]: 2035 ± 44.3 ^a
Feed conversion, medians ± standard error [3]: 1.45 ± 0.035 ^b
Weight gain, medians ± standard error [3]: 1399 ± 29.46 ^b
Weight in g, Final (28 days), medians ± standard error [3]: 1442 ± 29.49 ^b g
Weight in g, Initial, medians ± standard error [3]: 43 ± 0.43 ^a g
Xantophylls (oral solution), medians ± standard error ([3]; po): 8.92 ± 0.70 ^b mg/L
Inhibition of Newcastle hemagglutination (18 days after vaccination), medians ± standard error [4]: 8.717 ± 0.29 ^b Log2
Gizzard: loss of continuity, ulcer activity (moderate multifocal ulcerative ventriculitis) [5]: 7/12
Gizzard: scant erosions in the recovery zone (discrete, multifocal erosions) [5]: 5/12
Kidney: lymphocyte clusters in the interstitial space [5]: 4/12
Larynx: no significant changes [5]: 4/12
Liver: areas of extramedullary hematopoiesis [5]: 1/12
Liver: multifocal lymphocyte clusters around portal cavities and in the parenchymal (lymphocytic colangiohepatitis) [5]: 8/12
Liver: scant fat vacuoles/cells in hepatocyte cytoplasm (esteatosis) [5]: 3/12
Proventriculus: hyperplasia / cluster of associated lymphoid tissue [5]: 1/12
Proventriculus: no significant changes [5]: 11/12
Spleen, thymus: no significant changes [5]: 12/12
Tongue: dense plates above epithelium lining with lymphocyte and macrophage clusters (estomatitis and erosive/necrotic glositis) [5]: 8/12
Tongue: no significant changes (animals/examined) [5]: 4/12
Relative weight of bursa of Fabricius (%), medians ± standard error [6]: 0.248 ± 0.016 ^a %
Relative weight of kidney (%), medians ± standard error [6]: 0.809 ± 0.032 ^a %
Relative weight of liver (%), medians ± standard error [6]: 2.57 ± 0.104 ^a %
Relative weight of spleen (%), medians ± standard error [6]: 0.094 ± 0.009 ^a %
Relative weight of thymus (%), medians ± standard error [6]: 0.282 ± 0.020 ^a %
